From patent publication US20100028366A1, “SYNERGISTIC EFFECT BETWEEN A […] AND ANOTHER OXIDATIVE INDUCING SYSTEM FOR TREATING TUMORS” (priority 2005, published 2010)

What was measured:
W&Wlis cells [1] = assay: Determination of the extracellular peroxide concentration; format: cell-based, canine; settings: 48 hours; 0.5 mg/ml of linamarin and/or 5 mEU/ml of glucose oxidase; control approximately 20 μM
Method: The H2O2 levels (FIG. 3B) produced extracellularly in the combined therapy were further studied in the invention. To do so, the amount of H2O2 present in the culture medium of W&Wlis cells at 48 hours in a treatment with 0.5 mg/ml of linamarin, in the presence of 5 mEU/ml of glucose oxidase or in the combination of both treatments, was analyzed although positive results were also obtained using other concentrations.
The samples to be analyzed were diluted in 1 ml of 0.1 M phosphate buffer pH 7.4. Then 3.7 EU/ml of peroxidase (Sigma-Aldrich, St. Louis, USA) and 0.1 mg/ml of ortho-dianisidine (Sigma-Aldrich, St. Louis, USA) were added. The samples were incubated at room temperature for 30 minutes and absorbances at 436 nm were determined. The H2O2 concentration was obtained by interpolation of the data obtained in a standard line performed with increasing concentrations of H2O2.

W&Wlis cells [2] = assay: DNA content analysis by flow cytometry, labeling with propidium iodide; format: cell-based, canine; design: unit not given here; settings: Without GO
W&Wlis cells [3] = assay: Cell viability analysis by MTT; format: cell-based, canine
Method: The mitochondrial enzymatic activity as indicative of cell viability was determined by means of using tetrazolium salts. In this assay 10^5 cells/test tube (culture test tubes with a flat side and screw-on cap to prevent the exit of HCN; Nunc) or 10^4 cells/well of 24-well plates closed with parafilm were seeded. After 24 hours of incubation fresh culture medium supplemented with the concentrations of linamarin (between 50 and 500 μg/ml) and glucose oxidase (5 mEU/ml) necessary for each experiment was added. In the assays in which it applied, the medium was supplemented with N-acetyl cysteine (10 mM), 1,5-isoquinolinediol (300 μM) or Z-VAD-fmk (100 μM). After the time stipulated in each experiment (between 12 and 96 hours), the culture medium was removed and fresh medium with 200 μg/mL of MTT (3-[4,5-dimethylthiazo-2-yl]-2,5-diphenyl tetrazolium bromide) was added. After 1.5 hours of incubation, the medium was removed and 3 ml (for the test tubes) or 1 ml (for the 24-well plates) of dimethyl sulfoxide was added to dissolve the formazan. After 10 minutes, the absorbance of the samples at 540 nm was determined. MTT is a tetrazolium salt soluble in aqueous medium (yellow) which is transformed by the mitochondrial dehydrogenases in formazan, an insoluble compound in aqueous medium (purple).

W&Wlis cells [4] = assay: Measurement of intracellular ATP; format: cell-based, canine; settings: linamarin (500 μg/ml) and/or glucose oxidase (5 mEU/ml), over time, versus untreated cells
Method: The levels of intracellular energy in the form of ATP decrease when a blockage of the mitochondrial electron transport chain occurs since it is the essential source of obtaining energy of the cells. […] This effect is due to the fact that the maximum H2O2 production by glucose oxidase occurs at short times because the cells have the ability of detoxifying the peroxide and due to the fact that glucose oxidase is inactivated over time by the serum proteins.
10^5 W&Wlis cells were seeded in test tubes with a screw-on cap and flat side (Nunc). After 24 hours, the medium was changed, adding linamarin (500 μg/ml) and glucose oxidase (5 mEU/ml) where appropriate. After 4, 8, 12, 24, 48 or 72 hours, the cells were centrifuged and processed following the instructions of the ATP Bioluminescence Assay Kit CLS II, of Roche Applied Science. The luminescence was analyzed with a Monolight 2010 luminometer (Analytical Luminescence Laboratory, San Diego) and expressed in relative light units (RLU).

GB-LP-1 cells = assay: Survival by MTT of GB-LP-1 explant cells infected with adenolis; format: cell-based, human; settings: 500 μg/ml linamarin; even at MOI: 1
Method: The behavior of the lis/lin therapy in one of the explants (GB-LP-1) was additionally analyzed. These cells were infected with adenolis (MOI: 0, 1, 12, 100 and 500) and the survival and production of cyanide after the addition of 500 μg/ml linamarin (FIGS. 6G and 6H, respectively) were studied.
10^5 cells (W&W and patient explants) were seeded in test tubes with a flat side and screw-on cap (Nunc), or 5×10^4 cells were seeded on cover slips in 24-well plates and were simultaneously infected with adenolis (Crucell) at different multiplicities of infection (MOI: 0; 0.2; 1; 10; 100 or 500). For the cells seeded in test tubes, the medium was changed after 24 hours adding 0.5 mg/ml of linamarin where appropriate. A cell viability assay was conducted with MTT at 96 hours after the addition of linamarin. 48 hours after infection the cells seeded in the cover slips were processed to perform immunofluorescence to detect linamarase.

W&Wlis cells [5] = assay: Structural modifications of the mitochondrion (pDsRed2-mito, confocal microscopy); format: cell-based, canine; settings: linamarin 500 μg/ml from 48 hours; glucose oxidase 5 mEU/ml; combination after 24 hours
Method: For the purpose of studying the mitochondrial dynamics occurring as a result of the oxidative stress caused by the activity of the claimed system, W&Wlis cells were stably transfected with the plasmid pdsRed2-mito (Clontech) containing the gene of the one red fluorescent protein carried by a transport signal peptide to the mitochondrion. This allowed viewing the mitochondria of cells treated with linamarin and glucose oxidase by fluorescence microscopy. […] This effect starts to be observed 48 hours after treatment with linamarin (FIG. 1B) and becomes more pronounced after 72 hours, a slight swelling of the fragments (FIG. 1C) being observed.
To study the structural modifications of the mitochondrion during therapy, the W&W and W&Wlis cells were transfected with the plasmid pDsRed2-mito (Clontech, BD Bioscience) containing the gene of a red fluorescent protein which is expressed exclusively in mitochondria. The transfection was performed similarly to the previous section and clones were selected by resistance to neomycin (0.75 and 1.5 mg/ml respectively). The cells from stable expression clones of the protein were seeded in multiwell plates on cover slips (2.5×10^4) and were treated with linamarin (50, 200 or 500 μg/ml) and glucose oxidase (5 mEU/ml). After the suitable incubation time for each experiment (24, 48 or 72 hours) elapsed, the cells were fixed with 4% paraformaldehyde. […]

Compound: CC(C)(C#N)O[C@@H]1O[C@H](CO)[C@@H](O)[C@H](O)[C@H]1O [lin, 2-hydroxy-isobutyronitrile-β-D-glucopyranoside]
- extracellular H2O2 concentration in the culture medium (W&Wlis cells [1]): did not cause significant variations
- DNA content by flow cytometry, labeling with propidium iodide (W&Wlis cells [2]; 50 μg lin, 48 hours): 1.95
- DNA content by flow cytometry, labeling with propidium iodide (W&Wlis cells [2]; 50 μg lin, 72 hours): 2.77
- DNA content by flow cytometry, labeling with propidium iodide (W&Wlis cells [2]; 200 μg lin, 48 hours): 1.89
- DNA content by flow cytometry, labeling with propidium iodide (W&Wlis cells [2]; 200 μg lin, 72 hours): 3.14
- DNA content by flow cytometry, labeling with propidium iodide (W&Wlis cells [2]; 500 μg lin, 48 hours): 3.21
- DNA content by flow cytometry, labeling with propidium iodide (W&Wlis cells [2]; 500 μg lin, 72 hours): 4.91
- effect of NAC addition on death in the cell viability assay by MTT (W&Wlis cells [3]; 10 mM N-acetyl cysteine (NAC) in the medium): did not cause any effect
- cell survival by MTT (W&Wlis cells [3]; 96 hours, linamarin 200 to 500 μg/ml, without GO): drastic reduction of the survival
- time after which cell viability begins to decrease (MTT) (W&Wlis cells [3]; linamarin alone, or combined therapy at 500 μg/ml linamarin with 5 mEU/ml glucose oxidase): 48 h
- intracellular ATP levels (W&Wlis cells [4]): progressive and rapid depletion of ATP which becomes almost complete after 48 hours
- sensitivity of adenolis-infected cells to linamarin (survival) (GB-LP-1 cells): very sensitive to treatment with linamarin
- mitochondrial pattern (W&Wlis cells [5]): dotted pattern
